Experimental data published in patent US7601745B2, “Heterocyclic NF-kB inhibitors” (4SC AG, priority 2004, dated 2009).

test system: A549-NF-κB-SEAP reporter cells; assay: Inhibition of NF-κB-induced inflammation ([…] NINA Instant Assay, SEAP reporter); type: cell-based; settings: compounds of formula (I); TNF-α stimulated reporter cells; test concentration not given
In short: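 Reporter cells reactivated 18 h at 37° C, pre-incubated 4.5 h with compound (0.01 up to 100 μM), then stimulated with 2 ng/ml TNF-α for 22 h. SEAP measured by CSPD chemiluminescence (40 min) after endogenous phosphatase inactivation; EC50 fitted from quadruplicates.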

Question: For O=C(c1csc(C2CCN(S(=O)(=O)c3ccccc3Br)CC2)n1)N1CCN(c2cccc(C(F)(F)F)c2)CC1 [compound 196], which “Biological activity (NF-κB inflammation assay, inhibition)” value is on record?
Answer: The value was “+ (“+” stands for 50-80% inhibition)”.

Question: O=C(c1csc(C2CCN(S(=O)(=O)c3c(Cl)nc4sccn34)CC2)n1)N1CCN(c2cccc(C(F)(F)F)c2)CC1 [compound 197] was tested. Which “Biological activity (NF-κB inflammation assay, inhibition)” value did it give?
Answer: Its value is “+ (“+” stands for 50-80% inhibition)”.

Question: O=C(c1csc(C2CCN(S(=O)(=O)Cc3ccccc3)CC2)n1)N1CCN(c2cccc(C(F)(F)F)c2)CC1 [compound 198] was tested. Which “Biological activity (NF-κB inflammation assay, inhibition)” value did it give?
Answer: Its value is “+ (“+” stands for 50-80% inhibition)”.

Question: With O=C(c1csc(C2CCN(S(=O)(=O)c3ccc(Br)cc3)CC2)n1)N1CCN(c2cccc(C(F)(F)F)c2)CC1 [compound 199] as the compound, how does the “Biological activity (NF-κB inflammation assay, inhibition)” value read?
Answer: The value was “+ (“+” stands for 50-80% inhibition)”.

Question: O=C(c1csc(C2CCN(S(=O)(=O)c3ccc(Cl)cc3Cl)CC2)n1)N1CCN(c2cccc(C(F)(F)F)c2)CC1 [compound 200] was tested. Which “Biological activity (NF-κB inflammation assay, inhibition)” value did it give?
Answer: The value was “+ (“+” stands for 50-80% inhibition)”.

Question: How did the “Biological activity (NF-κB inflammation assay, inhibition)” value turn out when O=C(c1csc(C2CCN(S(=O)(=O)c3cc(C(F)(F)F)cc(C(F)(F)F)c3)CC2)n1)N1CCN(c2cccc(C(F)(F)F)c2)CC1 [compound 201] was run?
Answer: The value was “++ (“++” means 80-90%)”.

Question: How did the “Biological activity (NF-κB inflammation assay, inhibition)” value turn out when COc1ccc(Cl)cc1S(=O)(=O)N1CCC(c2nc(C(=O)N3CCN(c4cccc(C(F)(F)F)c4)CC3)cs2)CC1 [compound 202] was run?
Answer: Its value is “++ (“++” means 80-90%)”.

Question: Which “Biological activity (NF-κB inflammation assay, inhibition)” value does the source give for O=C(c1csc(C2CCN(S(=O)(=O)c3ccc(Br)s3)CC2)n1)N1CCN(c2cccc(C(F)(F)F)c2)CC1 [compound 203] here?
Answer: Its value is “+ (“+” stands for 50-80% inhibition)”.

Question: For Cc1ccc(S(=O)(=O)N2CCC(c3nc(C(=O)N4CCN(c5cccc(C(F)(F)F)c5)CC4)cs3)CC2)cc1 [compound 204], which “Biological activity (NF-κB inflammation assay, inhibition)” value is on record?
Answer: Its value is “+ (“+” stands for 50-80% inhibition)”.

Question: Which “Biological activity (NF-κB inflammation assay, inhibition)” value does the source give for O=C(c1csc(C2CCN(S(=O)(=O)c3ccc(OC(F)(F)F)cc3)CC2)n1)N1CCN(c2cccc(C(F)(F)F)c2)CC1 [compound 205] here?
Answer: The value was “+ (“+” stands for 50-80% inhibition)”.

Question: Which “Biological activity (NF-κB inflammation assay, inhibition)” value does the source give for O=C(c1csc(C2CCN(S(=O)(=O)c3ccc(Cl)cc3)CC2)n1)N1CCN(c2cccc(C(F)(F)F)c2)CC1 [compound 206] here?
Answer: Its value is “+ (“+” stands for 50-80% inhibition)”.

Question: With CC(=O)Nc1ccc(S(=O)(=O)N2CCC(c3nc(C(=O)N4CCN(c5cccc(C(F)(F)F)c5)CC4)cs3)CC2)cc1 [compound 207] as the compound, how does the “Biological activity (NF-κB inflammation assay, inhibition)” value read?
Answer: The value was “+ (“+” stands for 50-80% inhibition)”.

Question: With O=C(c1csc(C2CCN(S(=O)(=O)c3ccccc3)CC2)n1)N1CCN(c2cccc(C(F)(F)F)c2)CC1 [compound 208] as the compound, how does the “Biological activity (NF-κB inflammation assay, inhibition)” value read?
Answer: The value was “+ (“+” stands for 50-80% inhibition)”.

Question: With COc1cccc(C(=O)N2CCC(c3nc(C(=O)N4CCN(c5cccc(C(F)(F)F)c5)CC4)cs3)CC2)c1 [compound 209] as the compound, how does the “Biological activity (NF-κB inflammation assay, inhibition)” value read?
Answer: The value was “+ (“+” stands for 50-80% inhibition)”.

Question: For CN1CCOc2cc(C(=O)N3CCC(c4nc(C(=O)N5CCN(c6cccc(C(F)(F)F)c6)CC5)cs4)CC3)ccc21 [compound 210], which “Biological activity (NF-κB inflammation assay, inhibition)” value is on record?
Answer: Its value is “++ (“++” means 80-90%)”.

Question: How did the “Biological activity (NF-κB inflammation assay, inhibition)” value turn out when O=C(c1ccc2nccnc2c1)N1CCC(c2nc(C(=O)N3CCN(c4cccc(C(F)(F)F)c4)CC3)cs2)CC1 [compound 211] was run?
Answer: The value was “+ (“+” stands for 50-80% inhibition)”.

Question: O=C(c1csc(C2CCN(C(=O)c3cccs3)CC2)n1)N1CCN(c2cccc(C(F)(F)F)c2)CC1 [compound 212] was tested. Which “Biological activity (NF-κB inflammation assay, inhibition)” value did it give?
Answer: Its value is “+ (“+” stands for 50-80% inhibition)”.

Question: For O=C(c1csc(C2CCN(C(=O)c3cc4ccccc4s3)CC2)n1)N1CCN(c2cccc(C(F)(F)F)c2)CC1 [compound 213], which “Biological activity (NF-κB inflammation assay, inhibition)” value is on record?
Answer: The value was “++ (“++” means 80-90%)”.

Question: O=C(C=Cc1ccccc1)N1CCC(c2nc(C(=O)N3CCN(c4cccc(C(F)(F)F)c4)CC3)cs2)CC1 [compound 214] was tested. Which “Biological activity (NF-κB inflammation assay, inhibition)” value did it give?
Answer: Its value is “++ (“++” means 80-90%)”.

Question: How did the “Biological activity (NF-κB inflammation assay, inhibition)” value turn out when O=C(c1ccc(C(F)(F)F)c(F)c1)N1CCC(c2nc(C(=O)N3CCN(c4cccc(C(F)(F)F)c4)CC3)cs2)CC1 [compound 215] was run?
Answer: Its value is “+++ (“+++” stands for 90-100% inhibition)”.

Question: Cn1nc(C(C)(C)C)cc1C(=O)N1CCC(c2nc(C(=O)N3CCN(c4cccc(C(F)(F)F)c4)CC3)cs2)CC1 [compound 216] was tested. Which “Biological activity (NF-κB inflammation assay, inhibition)” value did it give?
Answer: Its value is “++ (“++” means 80-90%)”.

Question: For O=C(c1csc(C2CCN(C(=O)C3COc4ccccc4O3)CC2)n1)N1CCN(c2cccc(C(F)(F)F)c2)CC1 (stereo not drawn) [compound 217], which “Biological activity (NF-κB inflammation assay, inhibition)” value is on record?
Answer: Its value is “+++ (“+++” stands for 90-100% inhibition)”.

Question: For O=C(c1csc(C2CCN(C(=O)c3cc(-c4ccc(Cl)cc4)oc3C(F)(F)F)CC2)n1)N1CCN(c2cccc(C(F)(F)F)c2)CC1 [compound 218], which “Biological activity (NF-κB inflammation assay, inhibition)” value is on record?
Answer: The value was “+++ (“+++” stands for 90-100% inhibition)”.

Question: How did the “Biological activity (NF-κB inflammation assay, inhibition)” value turn out when Cc1noc(C)c1C(=O)N1CCC(c2nc(C(=O)N3CCN(c4cccc(C(F)(F)F)c4)CC3)cs2)CC1 [compound 219] was run?
Answer: Its value is “+ (“+” stands for 50-80% inhibition)”.

Question: Which “Biological activity (NF-κB inflammation assay, inhibition)” value does the source give for Cc1nnsc1C(=O)N1CCC(c2nc(C(=O)N3CCN(c4cccc(C(F)(F)F)c4)CC3)cs2)CC1 [compound 221] here?
Answer: The value was “+ (“+” stands for 50-80% inhibition)”.

Question: O=C(c1cccnc1)N1CCC(c2nc(C(=O)N3CCN(c4cccc(C(F)(F)F)c4)CC3)cs2)CC1 [compound 222] was tested. Which “Biological activity (NF-κB inflammation assay, inhibition)” value did it give?
Answer: Its value is “+ (“+” stands for 50-80% inhibition)”.

Question: O=C(c1csc(C2CCN(C(=O)c3ccccc3OC(F)(F)F)CC2)n1)N1CCN(c2cccc(C(F)(F)F)c2)CC1 [compound 223] was tested. Which “Biological activity (NF-κB inflammation assay, inhibition)” value did it give?
Answer: The value was “+++ (“+++” stands for 90-100% inhibition)”.

Question: O=C(CCC1CCCC1)N1CCC(c2nc(C(=O)N3CCN(c4cccc(C(F)(F)F)c4)CC3)cs2)CC1 [compound 224] was tested. Which “Biological activity (NF-κB inflammation assay, inhibition)” value did it give?
Answer: Its value is “+ (“+” stands for 50-80% inhibition)”.

Question: How did the “Biological activity (NF-κB inflammation assay, inhibition)” value turn out when COc1cc(C(=O)N2CCC(c3nc(C(=O)N4CCN(c5cccc(C(F)(F)F)c5)CC4)cs3)CC2)cc(OC)c1OC [compound 225] was run?
Answer: The value was “+ (“+” stands for 50-80% inhibition)”.

Question: With CN(C)c1cccc(C(=O)N2CCC(c3nc(C(=O)N4CCN(c5cccc(C(F)(F)F)c5)CC4)cs3)CC2)c1 [compound 226] as the compound, how does the “Biological activity (NF-κB inflammation assay, inhibition)” value read?
Answer: The value was “++ (“++” means 80-90%)”.

Question: How did the “Biological activity (NF-κB inflammation assay, inhibition)” value turn out when COc1ccccc1N1CCN(C(=O)c2csc(C3CCN(C(=O)Cc4ccc(F)cc4)CC3)n2)CC1 [compound 229] was run?
Answer: The value was “+ (“+” stands for 50-80% inhibition)”.

Question: For O=C(c1csc(C2CCN(C(=O)c3ccco3)CC2)n1)N1CCN(c2cccc(C(F)(F)F)c2)CC1 [compound 230], which “Biological activity (NF-κB inflammation assay, inhibition)” value is on record?
Answer: Its value is “+ (“+” stands for 50-80% inhibition)”.

Question: Which “Biological activity (NF-κB inflammation assay, inhibition)” value does the source give for CCCCN1CCN(C(=O)c2csc(C3CCN(C(=O)Cc4ccc(F)cc4)CC3)n2)CC1 [compound 231] here?
Answer: Its value is “+ (“+” stands for 50-80% inhibition)”.

Question: For O=C(Cc1ccc(F)cc1)N1CCC(c2nc(C(=O)N3CCN(c4ccccn4)CC3)cs2)CC1 [compound 237], which “Biological activity (NF-κB inflammation assay, inhibition)” value is on record?
Answer: The value was “+ (“+” stands for 50-80% inhibition)”.

Question: Which “Biological activity (NF-κB inflammation assay, inhibition)” value does the source give for O=C(Cc1ccc(F)cc1)N1CCC(c2nc(C(=O)N3CCN(c4cccc(Cl)c4)CC3)cs2)CC1 [compound 238] here?
Answer: Its value is “+ (“+” stands for 50-80% inhibition)”.

same assay, conditions: compounds of formula (Ic); TNF-α stimulated reporter cells; test concentration not given

Question: COc1cc2c(cc1OC)CN(C(=O)c1csc(C3CCN(C(=O)Cc4ccc(F)cc4)CC3)n1)C(C)C2 (stereo not drawn) [compound 232] was tested. Which “Biological activity (NF-κB inflammation assay, inhibition)” value did it give?
Answer: The value was “+ (“+” stands for 50-80% inhibition)”.

Question: How did the “Biological activity (NF-κB inflammation assay, inhibition)” value turn out when CC1c2cc(O)c(O)cc2CCN1C(=O)c1csc(C2CCN(C(=O)Cc3ccc(F)cc3)CC2)n1 (stereo not drawn) [compound 233] was run?
Answer: The value was “+ (“+” stands for 50-80% inhibition)”.

Question: How did the “Biological activity (NF-κB inflammation assay, inhibition)” value turn out when COc1cc2c(cc1OC)C(C)N(C(=O)c1csc(C3CCN(C(=O)Cc4ccc(F)cc4)CC3)n1)CC2 (stereo not drawn) [compound 234] was run?
Answer: The value was “+ (“+” stands for 50-80% inhibition)”.

Question: How did the “Biological activity (NF-κB inflammation assay, inhibition)” value turn out when CNc1ccc(Cl)cc1C1c2ccccc2CCN1C(=O)c1csc(C2CCN(C(=O)Cc3ccc(F)cc3)CC2)n1 (stereo not drawn) [compound 235] was run?
Answer: The value was “+ (“+” stands for 50-80% inhibition)”.
